Source: PMC11661381, “Covalent-fragment screening identifies selective inhibitors of multiple Staphylococcus aureus serine hydrolases important for growth and biofilm formation” (Research Square, 2024)

What was measured:
[1] = biological target: T1, recombinant FphH (rFphH) (Staphylococcus aureus, UniProt A0A0H2XJL0); experiment: biochemical; conditions: for selectivity in the dose-dependent response assay (in words): three Fphs tested
T1 sequence (A0A0H2XJL0 1-246): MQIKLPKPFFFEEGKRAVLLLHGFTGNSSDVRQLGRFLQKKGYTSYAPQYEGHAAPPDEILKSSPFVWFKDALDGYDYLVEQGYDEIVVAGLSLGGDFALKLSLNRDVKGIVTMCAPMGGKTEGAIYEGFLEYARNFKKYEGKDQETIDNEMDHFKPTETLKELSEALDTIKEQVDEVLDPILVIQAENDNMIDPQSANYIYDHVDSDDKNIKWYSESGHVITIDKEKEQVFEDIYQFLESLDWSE
Experimental: (§1) Fluorogenic substrate assays were performed as previously described[9],[11],[12]. […] Turnover rates in the linear phase of the reaction (10–20 min) were calculated using GraphPad prism 10.0 software as RFU/min. Rates were normalized by subtracting background hydrolysis rates measured for each substrate in reaction buffer in the absence of protein.
(§2) For the screening, 8 μL of enzyme solution was pipetted into the assay plates containing 50 nL compound and allowed to incubate for one hour at room temperature. […] For four-point dose response plates, 2.5, 10, 25, 50 nL droplets were transferred to get […], 10, 25, 50 μM compound concentrations in the 384 well plates again using an Echo acoustic liquid handler as above. […] Calculations were done with GraphPad Prism 10.0 software. […] IC50 values were derived from the fitted curve.

[2] = biological target: T2, recombinant FphE (rFphE) (Staphylococcus aureus, UniProt Q2FDS6); experiment: biochemical; conditions: from dose response IC50 values
T2 construct: otherwise full-length FphE (Uniprot ID Q2FDS6) and FphH (A0A0H2XJL0) proteins; His6 (3C-cleavable, pETNKI-his-3C-LIC vector) (N); made in house; E. coli is inferred from the pET28a-type vector, IPTG induction and LB/kanamycin
T2 sequence (Q2FDS6 1-276): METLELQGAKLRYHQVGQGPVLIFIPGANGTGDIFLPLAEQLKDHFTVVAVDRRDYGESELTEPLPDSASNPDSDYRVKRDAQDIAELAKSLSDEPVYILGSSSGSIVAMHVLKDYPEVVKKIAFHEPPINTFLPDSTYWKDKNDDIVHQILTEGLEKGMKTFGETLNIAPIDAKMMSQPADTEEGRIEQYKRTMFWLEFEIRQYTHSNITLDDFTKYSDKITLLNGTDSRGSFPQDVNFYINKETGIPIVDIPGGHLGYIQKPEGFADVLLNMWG
Experimental: as §1, §2

[3] = system: Fph enzymes in live S. aureus cells (USA300); experiment: Competition of FP-alkyne labeling in live S. aureus cells; assay type: cell-based, Staphylococcus aureus; conditions: 100 μM compound, live S. aureus cells
Experimental: One colony of each of S. aureus wild-type and transposon mutants fphB::Tn, fphE::Tn and fphH::Tn picked from growth on a Tryptic soya agar plate were inoculated in 5 mL of Tryptic soya broth (TSB). The overnight bacterial cultures were spun down at 5,000 g for 10 min and pellet was collected. The pellets were washed twice in 1X PBS buffer and resuspended in the same buffer. Cells were first preincubated with the indicated concentrations of inhibitors for 2hr at 37°C. The cells were washed twice with 1X PBS buffer. The resuspended pellets were incubated with Fluorophosphonate-alkyne (FP-alkyne) for 30 min at 37°C. Cells were washed again twice with 1X PBS buffer and resuspended in with 1X PBS and 0.1% Triton–X and lysed by beat beating at 4°C. Next, lysed cells (20 μL) were mixed with 2.16 μL of freshly prepared click mix (0.5 μL of 50 mM CuSO4 in H2O, 1.16 μL of 100 mM BTTAA in DMSO, and 0.5 μL of N3-Cy5 in DMSO) and 1.16 μL of 300 mM sodium ascorbate solution in H2O and incubated at 37 °C for 30 min. Next step, 20 μL of 4X SDS loading buffer was added in each sample and boiled at 100 °C for 10 min. The processed samples were allowed to cool and analyzed by SDS-PAGE (12%) running at 120 V in an electrophoresis chamber. Cy5 fluorescence was imaged using the Cy5 channel on a Typhoon 9410 Imager (Amersham Biosciences).

[4] = biological target: T3, recombinant FphB (rFphB) (Staphylococcus aureus, UniProt A0A0H2XJG5); assay type: biochemical; conditions: enzyme inhibition assay
T3 construct: made in house
T3 sequence (A0A0H2XJG5 entry or part of it): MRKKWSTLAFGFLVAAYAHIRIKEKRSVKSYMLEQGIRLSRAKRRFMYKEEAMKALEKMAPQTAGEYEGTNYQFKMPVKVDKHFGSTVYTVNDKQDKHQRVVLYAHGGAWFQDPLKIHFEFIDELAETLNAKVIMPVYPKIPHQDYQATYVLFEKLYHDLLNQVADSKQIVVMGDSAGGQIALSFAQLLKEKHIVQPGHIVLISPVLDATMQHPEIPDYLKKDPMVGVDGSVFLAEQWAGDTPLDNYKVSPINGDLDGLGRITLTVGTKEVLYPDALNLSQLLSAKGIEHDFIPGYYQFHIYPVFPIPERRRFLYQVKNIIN
Experimental: as §1, §2

[5] = system: Fph enzymes in S. aureus USA300 WT lysates; experiment: Competition of FP labeling in S. aureus lysates; assay type: binding, Staphylococcus aureus; conditions: 120 min preincubation
Experimental: Figure 3 Biochemical characterization of fluorosulfate-based fragments. […] (d) LC/MS profiles for X13d and X13e in LC/MS buffer or aqueous buffer. (e) Proposed reaction mechanism of X13d or X13e binding to rFphH, Fluorescence SDS-PAGE image of rFphH for direct visualization of labelling by clickable probes X13d and X13e with Cy5-azide. (f) Native mass spectrometry (MS) characterization of 1μM rFphH alone or after 1hr incubation with 10 μM X13d or X13e. […] (h) Competition of FP-Cy5 labeling of S. aureus lysates. […] The indicated Fph transposon mutants (::Tn) lysates are included to highlight the location of the three enzymes in the gel. All data shown are representative of three independent experiments.
Cells were then lysed and click labeled with sulfo-Cy5 azide and analyzed by SDS-PAGE. […] We hypothesized this lack of competition may have been due to the inability to permeate the cell membranes. For bacteria, the permeability is influenced by the polarity of the compound, measured by clogP. Drugs targeting Gram-negative bacteria show higher polarities (clogP = − 0.1) compared to those targeting Gram-positive bacteria (clogP = 2.1)[32],[33]. […] Overall, this electrophile has a unique mechanism of binding with the active site serine of FphH and may be a valuable new electrophile class to target other serine hydrolases.

[6] = biological target: T4, rFphH (Staphylococcus aureus, UniProt A0A0H2XJL0); experiment: FP-Cy5 active site labeling of recombinant protein, rFphH; assay type: binding; conditions: 500 nM rFphH
T4 construct: otherwise full-length FphE (Uniprot ID Q2FDS6) and FphH (A0A0H2XJL0) proteins; His6 (3C-cleavable, pETNKI-his-3C-LIC vector) (N); made in house; E. coli is inferred from the pET28a-type vector, IPTG induction and LB/kanamycin
T4 sequence (A0A0H2XJL0 1-246): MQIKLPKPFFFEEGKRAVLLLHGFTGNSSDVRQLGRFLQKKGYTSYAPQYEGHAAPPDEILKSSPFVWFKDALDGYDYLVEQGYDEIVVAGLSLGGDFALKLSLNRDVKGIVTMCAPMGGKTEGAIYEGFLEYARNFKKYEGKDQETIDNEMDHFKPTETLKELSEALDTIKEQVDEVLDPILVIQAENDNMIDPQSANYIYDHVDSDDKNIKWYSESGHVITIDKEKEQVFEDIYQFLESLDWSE
Experimental: For activity-based protein labeling experiments, 500 nM of rFphB, rFphE and rFphH in 1X PBS and 0.1% Triton–X were preincubated with different concentrations of inhibitors or DMSO for 2hr at room temperature, followed by adding 300 nM of fluorophosphonate (FP) alkyne and incubated for 30 min at room temperature. Next, 20 μL of the reaction volume were mixed with 2.16 μL of freshly prepared click mix (0.5 μL of 50 mM CuSO4 in H2O, 1.16 μL of 100 mM BTTAA in DMSO, and 0.5 μL of N3-Cy5 in DMSO) and 1.16 μL of 300 mM sodium ascorbate solution in H2O. Samples were incubated at 37°C for 30 min, boiled in SDS loading buffer and analyzed by SDS–PAGE. Cy5 fluorescence was imaged using the Cy5 channel on a Typhoon 9410 Imager (Amersham Biosciences).

[7] = biological target: T5, rFphE (Staphylococcus aureus, UniProt Q2FDS6); experiment: Mass spectrometry of rFphE labeling; assay type: binding
T5 construct: otherwise full-length FphE (Uniprot ID Q2FDS6) and FphH (A0A0H2XJL0) proteins; His6 (3C-cleavable, pETNKI-his-3C-LIC vector) (N); made in house; E. coli is inferred from the pET28a-type vector, IPTG induction and LB/kanamycin
T5 sequence (Q2FDS6 1-276): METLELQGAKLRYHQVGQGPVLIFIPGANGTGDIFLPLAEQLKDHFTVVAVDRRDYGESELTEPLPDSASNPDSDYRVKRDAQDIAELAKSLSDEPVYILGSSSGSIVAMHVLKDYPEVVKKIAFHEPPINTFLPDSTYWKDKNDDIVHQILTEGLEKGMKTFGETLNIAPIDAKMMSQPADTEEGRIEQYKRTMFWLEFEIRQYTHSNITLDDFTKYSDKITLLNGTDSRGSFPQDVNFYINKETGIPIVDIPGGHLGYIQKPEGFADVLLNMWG

[8] = Stability in aqueous assay buffer by LC/MS; assay type: physicochemical
From the text: This shift was not observed in the acidic mass spectrometry buffer (0.1% formic acid (FA) in H2O as buffer A, and 0.1% FA in acetonitrile (ACN) as buffer B; SI details). We therefore reasoned that the molecule likely reacts to release the fluoride under neutral pH conditions (Fig. 3c). Given the presence of the amide nitrogen in close proximity to the sulfur (VI) atom we reasoned that it likely produces a saccharine-like structure by a cyclization to release the fluorine atom[31]. This would create a molecule that could then be ring-opened by attack by the active site serine on the sulfur center, resulting in irreversible protein modification. […] We were able to purify the non-cyclized OSF-fragment, X13d under acidic conditions, as well as the cyclized OSF-fragment, X13e. We observed a clear mass difference of 20 Da between the two purified species by LC/MS analysis.

[9] = biological target: T4, rFphH; experiment: Intact protein LC-MS of rFphH with inhibitors; assay type: binding; conditions: 1 μM rFphH, 10 μM probe, 1hr
Experimental: Next, 10 μL of the labeled sample was injected and analyzed by LC-MS. […] Protein labeling efficiency was quantified by UV. The acquired mass of protein was deconvoluted using the deconvolution software in Agilent Bioanalysis Software package.

[10] = biological target: the molecule itself; experiment: crystal structure

Molecule: CC1(C)OB(c2cnc3c(c2)CC(=O)N3)OC1(C)C [AF22]
- selectivity in the dose-dependent response assay (in words) [1]: quite selective for rFphH

Molecule: CN1CCCN(C(=O)c2ccc(S(=O)(=O)F)cc2)c2ccccc21 [L17]
- IC50 ([1]; IC50 (μM) FphH, 5 nM rFphH, 1 hr preincubation, 0.01–50 μM, N.D. = IC50 could not be determined due to incomplete inhibition at the highest concentration tested): 3 µM

Molecule: Cc1cc(B2OC(C)(C)C(C)(C)O2)ccc1S(N)(=O)=O [Q41]
- selectivity in the dose-dependent response assay (in words) [1]: quite selective for rFphH

Molecule: COc1cc(OC)cc(B(O)O)c1 [W41]
- selectivity for rFphE over rFphH [2]: ~100 fold
- competition of FP labeling in live cells (in words) [3]: unable to block FP labeling of any of the Fph enzymes

Molecule: Cc1ccc(OS(=O)(=O)F)c(C(=O)Nc2ccncc2)c1 [X13]
- selectivity (higher potency) for rFphH over rFphE ([1]; from dose response IC50 values): ~100 fold
- inhibition of rFphB (in words) [4]: no activity against rFphB
- competition of FP labeling in live cells (in words) [3]: Neither of the compounds competed with FP labeling in intact cells
- competition of FP labeling in lysates (in words) [5]: dose-dependently competed with FP labeling of rFphH as well as rFphE at higher concentrations
- competition of FP-Cy5 labeling of rFphH (in words) [6]: dose-dependent competition of protein labeling
- labeling of rFphE by mass-spectrometry (in words) [7]: No labeling
- mass shift upon incubation in aqueous buffer ([8]; 1X Phosphate buffer saline pH 7.5, 60 min, absence of protein): 20 Da

Molecule: O=C(Nc1ccncc1)c1ccccc1OS(=O)(=O)F [X13a]
- competition of FP labeling in live cells (in words) [3]: Neither of the compounds competed with FP labeling in intact cells
- competition of FP labeling in lysates (in words) [5]: dose-dependently competed with FP labeling of rFphH as well as rFphE at higher concentrations
- competition of FP-Cy5 labeling of rFphH (in words) [6]: dose-dependent competition of protein labeling

Molecule: C#Cc1cnccc1NC(=O)c1ccccc1OS(=O)(=O)F [X13d]
- mass shift of rFphH (in words) [9]: produced the expected mass shift
- conversion in pH 7.5 buffer (in words) ([8]; pH 7.5 buffer): rapidly converted to the cyclic version

Molecule: C#Cc1cnccc1N1C(=O)c2ccccc2OS1(=O)=O [X13e]
- mass shift of rFphH (in words) [9]: produced the expected mass shift

B1: FphE (fluorophosphonate-binding hydrolase E), S. aureus USA300, crystallography construct (enzyme)
chain: GPGMETLELQGAKLRYHQVGQGPVLIFIPGANGTGDIFLPLAEQLKDHFTVVAVDRRDYGESELTEPLPDSASNPDSDYRVKRDAQDIAELAKSLSDEPVYILGSSSGSIVAMHVLKDYPEVVKKIAFHEPPINTFLPDSTYWKDKNDDIVHQILTEGLEKGMKTFGETLNIAPIDAKMMSQPADTEEGRIEQYKRTMFWLEFEIRQYTHSNITLDDFTKYSDKITLLNGTDSRGSFPQDVNFYINKETGIPIVDIPGGHLGYIQKPEGFADVLLNMWG
notes: also called rFphE; source: E. coli expression from pet28a-(pETNKI-his-3C-LIC-kan), purified (Ni-NTA, size exclusion); tag cleaved with 3C protease
- binding result [10]: binds
